Data on 6 molecules can be found in patent US20230218710A1, “METHOD OF TREATING CORONAVIRUS INFECTIONS” (priority 2020, published 2023).

Structures can show the parent of a compound that is named as a salt. Marks after values point to notes of the source that are not given here.

The target in assay [1] is T1, Apelin Receptor (APJ) (Homo sapiens, UniProt P35414).
T1 construct: host or cells: CHO-K1 AGTRL1 Gi cells
T1 sequence (P35414 1-380): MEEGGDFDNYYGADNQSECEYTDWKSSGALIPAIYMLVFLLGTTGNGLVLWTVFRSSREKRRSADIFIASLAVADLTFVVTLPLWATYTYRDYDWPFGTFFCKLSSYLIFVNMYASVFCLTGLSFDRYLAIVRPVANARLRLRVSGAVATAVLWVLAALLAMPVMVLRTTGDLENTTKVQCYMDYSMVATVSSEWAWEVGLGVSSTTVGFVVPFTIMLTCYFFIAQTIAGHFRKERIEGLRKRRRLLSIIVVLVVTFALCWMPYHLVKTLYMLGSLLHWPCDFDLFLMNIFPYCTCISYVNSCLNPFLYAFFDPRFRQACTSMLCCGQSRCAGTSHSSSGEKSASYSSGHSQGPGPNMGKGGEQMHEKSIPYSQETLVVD
Nature of the assay: Phosphorylation of ERK1/2 in cultured cells overexpressing APJ. In kind it is cell-based. Particulars: 5 min, 100 nM Pyr-Apelin-13 = positive control, acetate salts. On the procedure: The effect of the peptides of the current invention on activation of Apelin Receptor (APJ)-mediated signaling can be assessed using an assay to monitor phospho-ERK/phospho-p44/42 MAPK (p-ERK1/2) levels in cultured cells overexpressing Apelin Receptor (APJ) such as CHO-K1, derived from Chinese hamster ovary. Peptides were initially prepared as 100× stocks in H2O. […] Following a 5 min incubation the supernatant was removed and the cells were placed on ice and washed twice with cold HBSS. The HBSS was removed and the cells were immediately lysed in 300 μl/well of 1× lysis buffer (CST 10× Lysis Buffer; Cell Signaling Technology; Danvers, Mass.); lysis buffer was supplemented with 1 mM PMSF (Millipore-Sigma; Saint Louis, Mo.) and Halt Protease/Phosphatase Inhibitor Cocktail (Thermo-Fisher; Waltham, Mass.) prior to use. The samples were then placed on ice for 10 min, wells were scraped and lysates transferred to microfuge tubes. The samples were centrifuged at 12,500 rpm for 10 min at 4° C. and p-ERK1/2 expression in each sample was measured using Phospho-p44/42 MAPK (Thr202/Tyr204) Sandwich ELISA kit according to manufacturer's instructions (Cell Signaling Technology; Danvers, Mass.). Absorbance was measured using a Cytation 3 plate reader at […] (BioTek; Winooski, Vt.). […] Each data point represents the average of duplicate assays.

Assay [2] deals with T1, Apelin Receptor (APJ). Nature of the assay: Phosphorylation of MEK1 in cultured cells overexpressing APJ. In kind it is cell-based. Particulars: 5 min, 100 nM Pyr-Apelin-13 = positive control, acetate salts. The method, then: Peptides were initially prepared as 100× stocks in H2O. […] Following a 5 min incubation, the supernatant was removed and the cells were placed on ice and washed twice with cold HBSS. The HBSS was removed and the cells were immediately lysed in 300 μl/well of 1× lysis buffer (CST 10× Lysis Buffer; Cell Signaling Technology; Danvers, Mass.); lysis buffer was supplemented with 1 mM PMSF (Millipore-Sigma; Saint Louis, Mo.) and Halt Protease/Phosphatase Inhibitor Cocktail (Thermo-Fisher; Waltham, Mass.) prior to use. The samples were then placed on ice for 10 min, the wells were scraped and lysates were centrifuged at 12,500 rpm for 10 min at 4° C., and p-MEK expression in each sample was measured using Phospho-MEK1 (Ser217/221) Sandwich ELISA kit according to manufacturer's instructions (Cell Signaling Technology; Danvers, Mass.). Absorbance was measured using a Cytation 3 plate reader at […] (BioTek; Winooski, Vt.). […] Each data point represents the average of duplicate assays.

The target of assay [3] is T1, Apelin Receptor (APJ). Nature of the assay: Activation of Ras in cultured cells overexpressing APJ. The class given is cell-based. Particulars: 50 μM peptide, 1 min; 100 nM Pyr-Apelin-13 = positive control. The method, then:
Peptides were initially prepared as 100× stocks in H2O. […] Following a 1 min incubation, the cells were placed on ice, the supernatant was removed, and washed twice with cold HBSS. The HBSS was removed and the cells were immediately lysed in 150 μl/well of lysis buffer included with Active Ras Detection kit (Cell Signaling Technology; Danvers, Mass.); lysis buffer was supplemented with 1 mM PMSF (Millipore-Sigma; Saint Louis, Mo.) and Halt Protease/Phosphatase Inhibitor Cocktail (Thermo-Fisher; Waltham, Mass.) prior to use. The wells were immediately scraped and lysates transferred to microfuge tubes. The samples were then placed on ice for 10 min. […] Visualization and quantification of Ras recovery (GTP-bound/active Ras) in samples were performed with Azure Biosystems C400 Imager and AzureSpot analysis software (Dublin, Calif.). […] Each data point represents the average of duplicate assays.

Assay [4] relates to LPS-induced acute lung injury mouse model. Nature of the assay: LPS-induced acute lung injury model in mouse (Example 6). In kind it is in vivo, mice. Particulars: 10 nmol/kg i.p.; for Mean (SEM) Lung Weight: normalized to body weight. On the procedure:
The effect of the peptides of the current invention on acute lung injury can be assessed in an LPS-induced acute lung injury mouse model by monitoring outcomes such as lung weight, fluid accumulation, cytokine secretion in blood or bronchoalveolar lavage fluid (BALF), neutrophil infiltration into lung tissues, and assessment of acute lung injury score by histopathology. Acute lung injury was induced in male C57BL/6 mice (6 to 8 weeks old) by intratracheal administration of 40 μL lipopolysaccharide (LPS) (Sigma Aldrich, St. Louis, Mo.) in PBS at 5 mg/kg. Control animals received intratracheal PBS alone. […] Treatments were administered 1 h prior to LPS for animals designated for sacrifice at 4 h after LPS, or at both 1 h prior to and 6 h after LPS for animals designated for sacrifice at 24 h after LPS. At 4 or 24 hours post LPS administration, tissues were harvested. Lungs were weighed, flushed with Hanks Buffer to provide bronchoalveolar lavage fluid (BALF). Lungs were fixed in 10% neutral buffered formalin (NBF) for histopathology. Tissue slides were stained with hematoxylin and eosin (H&E) and evaluated and scored with light microscopy of 5 representative microscopic fields (100× magnification) scoring on a 0-5 scale using standard methods (Matute-Bello G et al 2011. An Official American Thoracic Society Workshop Report: Features and Measurements of Experimental Acute Lung Injury in Animals. Am J Respir Cell Mol Biol 44:725-38). The average score for five fields was calculated for each animal. Levels of pro-inflammatory cytokines in BALF were determined using a meso scale discovery (MSD) system. Data for test peptides were compared to the vehicle control group. Lung weights were normalized to body weight.

For assay [5], the system named is LPS-induced acute lung tissue damage. Particulars: animals; Petrescu et al. 2010; cited from earlier work.
Assay [6] concerns LPS-induced tissue damage in the liver. Particulars: rats; Zhou et al. 2018; cited from earlier work.
The mark [7] stands for this setting: histopathology, 0-5 scale, 24 h after LPS.

Take `CSCC[C@H](NC(=O)CNC(=O)[C@H](CCSC)NC(=O)[C@H](CCSC)NC(=O)[C@H](CCCNC(=N)N)NC(=O)[C@@H](N)CCCNC(=N)N)C(=O)N[C@H](C(=O)N[C@@H](Cc1ccccc1)C(=O)N[C@@H](CCC(N)=O)C(=O)N[C@@H](CO)C(=O)N[C@@H](CC(C)C)C(=O)N[C@@H](CS)C(=O)NCC(=O)N[C@H](C)C(=O)O)C(C)C` [SEQ ID NO: 15]: the “pERK1/2 (% of Positive Control)” value was 1.9% at Apelin Receptor (APJ) [1] (0.4 μM peptide), 15.4% at Apelin Receptor (APJ) [1] (2.0 μM peptide), 44.4% on Apelin Receptor (APJ) [1] (10 μM peptide) and 69.7% on Apelin Receptor (APJ) [1] (50 μM peptide). The entries for the “pMEK1 (% of Positive Control)” value on Apelin Receptor (APJ) [2] (2.0 μM peptide), at Apelin Receptor (APJ) [2] (10 μM peptide) and on Apelin Receptor (APJ) [2] (50 μM peptide) were 2.5%, 14.3% and 52.7%, respectively.
In the case of “(PEG12)KRRLLGLVFQSLCG(dA) [SEQ ID NO: 37 HCl salt] (KRRLLGLVFQSLCGA; N-terminal PEG12, C-terminal D-Ala, HCl salt; (1)..(1) PEG12; (15)..(15) D-Ala)”, the “GTP-Ras (% of Positive Control)” value with Apelin Receptor (APJ) [3] is on record as 33.2%.
Take `CSCC[C@H](NC(=O)[C@@H]1CCCN1C(=O)CNC(=O)[C@H](CCCCN)NC(=O)[C@H](Cc1c[nH]cn1)NC(=O)[C@H](CO)NC(=O)[C@H](CC(C)C)NC(=O)[C@H](CCCNC(=N)N)NC(=O)[C@@H]1CCCN1C(=O)[C@H](CCCNC(=N)N)NC(=O)[C@@H](N)CCC(N)=O)C(=O)N1CCC[C@H]1C(=O)N[C@@H](Cc1ccccc1)C(=O)O` [Apelin-13]: in assay [4] (BALF, 4 h after LPS), the “Pro-inflammatory Cytokine Level IFNγ” value is 0.04 pg/mL, the “Pro-inflammatory Cytokine Level IL-1β” value amounted to 123 pg/mL, the “Pro-inflammatory Cytokine Level IL-6” value stood at 4540 pg/mL and the “Pro-inflammatory Cytokine Level IL-17-A” value is reported as 0.87 pg/mL. Moreover, in assay [4] (BALF, 4 h after LPS), the “Pro-inflammatory Cytokine Level IL-17-C” value was determined as 1.84 pg/mL, the “Pro-inflammatory Cytokine Level IL-23” value is listed as 0.68 pg/mL, the “Pro-inflammatory Cytokine Level KC/GRO” value was determined as 3210 pg/mL and the “Pro-inflammatory Cytokine Level TNFα” value came to 15500 pg/mL. Further, in assay [4] (setting [7]), the “Mean (SEM) Alveolar Neutrophil Infiltration Score” value was 1.40 (0.21) and the “Mean (SEM) Interstitial Neutrophil Infiltration Score” value was 1.13 (0.11). The “Mean (SEM) Composite Lung Injury Score” value in assay [4] (histopathology, 24 h after LPS) is reported as 2.58 (0.29). Besides, the “Mean (SEM) Lung Weight” value in assay [4] (4 h after LPS) is 1.03 (0.03)** g. In assay [4] (24 h after LPS), the “Mean (SEM) Lung Weight” value is 1.32 (0.03)* g. Further, the “Pulmonary vascular leakage resulting from LPS-induced acute lung tissue damage (in words)” value in assay [5] was “reduce pulmonary vascular leakage”. Moreover, in assay [6], the “Tissue damage in the liver induced by LPS (in words)” value was “attenuated tissue damage in the liver”.
For the molecule “(PEG12)KRRLLGLVFQSLCG(dA) [SEQ ID NO: 37 Acetate salt] (KRRLLGLVFQSLCGA; N-terminal PEG12, C-terminal D-Ala, acetate salt; (1)..(1) PEG12; (15)..(15) D-Ala)”, the “GTP-Ras (% of Positive Control)” value with Apelin Receptor (APJ) [3] was determined as 79.2%.
Still for that read-out and setting: with `CSCC[C@H](NC(=O)CNC(=O)[C@H](CCSC)NC(=O)[C@H](CCSC)NC(=O)[C@H](CCCNC(=N)N)NC(=O)[C@@H](N)CCCNC(=N)N)C(=O)N[C@H](C(=O)N[C@@H](Cc1ccccc1)C(=O)N[C@@H](CCC(N)=O)C(=O)N[C@@H](CO)C(=O)N[C@@H](CC(C)C)C(=O)N[C@@H](CS)C(=O)NCC(=O)N[C@H](C)C(=O)O)C(C)C` [SEQ ID NO: 15 HCl salt] the figure was 90.8%; with `CSCC[C@H](NC(=O)CNC(=O)[C@H](CCSC)NC(=O)[C@H](CCSC)NC(=O)[C@H](CCCNC(=N)N)NC(=O)[C@@H](N)CCCNC(=N)N)C(=O)N[C@H](C(=O)N[C@@H](Cc1ccccc1)C(=O)N[C@@H](CCC(N)=O)C(=O)N[C@@H](CO)C(=O)N[C@@H](CC(C)C)C(=O)N[C@@H](CS)C(=O)NCC(=O)N[C@H](C)C(=O)O)C(C)C` [SEQ ID NO: 15 Acetate salt], 64.9%.
